Measurements as given in patent US10500178B2, “LTB4 inhibition to prevent and treat human lymphedema” (The Board of Trustees of the Leland Stanford Junior …, priority 2015, dated 2019).

Columns and labels:
LTB4 = assay: serum LTB4 levels in lymphedema mice; assay type: in vivo, mouse; details: therapies initiated on d3, assessed on d24
Description: (§1) All small molecule drugs were administered through daily intraperitoneal injection.
Quantification of LTB4, PGE2 and S1P with LC-MS/MS. Briefly, LTB4, PGE2 and S1P were separated from serum with an ACE reverse phase C18 HPLC column. Formic acid 0.5% in 5 mM NH4Ac (A) and formic acid 0.5% in acetonitrile/water (9/1) (B) were used as the mobile phase. […] The internal standard of this method was Carbutamide. The quantification limit was 1 ng/ml. The calibration range was 1-2000 ng/ml.

[1] = system: acquired lymphedema surgically induced in the tails of female C57BL/6J mice; assay: mouse-tail model of acquired lymphedema (tail volume, histology); assay type: in vivo; details: for amelioration of lymphedema (serial tail-volume measurements over 24d): therapies started on post-surgery d3 (late LTB4 antagonism)
Description: Surgical induction of experimental lymphatic vascular insufficiency. […] Briefly, a full-thickness circumferential incision of the skin was made 16 mm distal to the base of the mouse tail under anesthesia. Lymphatic trunks were ablated through controlled, limited cautery application under the surgical microscope. For surgical controls (sham animals), the skin incision alone was performed without lymphatic cautery.
as §1
Tail volume quantitation. Tail-volume measurements at each designated time were quantified by observers blinded to the treatment status of the subjects. Tail volumes were calculated through a digital photographic technique pre-operatively, and post-operatively (d3, d9, d14, d20, and d24), using an Olympus D520 Zoom digital camera at SHQ resolution at a fixed distance from the subject (37 cm), as previously described. Tail volumes were derived from the measurement of the tail diameter using the truncated cone approximation. Microlymphangiography was performed by injecting FITC-dextran (size: 2000 kDa) subcutaneously into mouse tails on post-surgery d24. Images were taken 20 minutes after injection.
Viral particles were mixed with Lipofectamine 2,000 (5% final vol/vol, Invitrogen) before injection, to increase transduction efficiency. qRT-PCR, immunofluorescence and fluorescence in situ hybridization were used to evaluate the silencing efficiency in the mouse tail skin 24d after surgery.

Notch (NICD, DLL4) = assay: Western blot of NICD and DLL4 in HLECs; assay type: cell-based, human
Description: (§2) Western Blot HLECs were lysed with RIPA buffer containing protease and phosphatase inhibitors. Lysates were sonicated briefly and centrifuged. The supernatant was collected and protein concentration was determined by BCA assay. 60 µg of protein were resolved on a 10% SDS-PAGE gel, transferred to a nitrocellulose membrane, blocked with 5% milk and probed with one of the following antibodies: anti-Sphk1 (3297,Cell Signaling); antip-Sphk1(SP1641, ECM Biosciences); anti-NICD (ab8925,Abcam), anti-VEGFR3 (AF743,R&D); anti-DLL4 (ab7280, Abcam). Actin was used to normalize the total protein. Immunofluorescence Immunofluorescence staining was performed using the following primary antibodies: anti-5-LO (3289, Cell Signaling); anti-MPO (ab45977, Abcam); Anti-CD68 (ab22506, Abcam); anti-Prox1(ab101851, Abcam); anti-NICD (ab8925, Abcam), anti-EphrinB2 (AF496,R&D); anti-VEGFR3 (AF743,R&D); anti-Hey1(ab22614, Abcam); Alexa-Fluor-555 Phalloidin (8953,Cell Signaling); anti-DIG(11093274910, Sigma-Aldrich). Negative controls with isotype IgG were run in parallel. Images were acquired by Zeiss 710 confocal microscopy and analyzed using ImageJ software.

p-Sphk1 = assay: Western blot of p-SphK1 in HLECs; assay type: cell-based, human; details: exogenous LTB4 (400 nM)
Description: as §2

HLECs [2] = assay: HLEC lymphangiogenesis (tube formation, migration, wound healing, sprouting); assay type: cell-based, human; details: for HLEC lymphangiogenesis in the presence of S1P, shS1pr1, shDll4 or DAPT: LTB4-impaired or S1P-treated HLEC cultures
Description: Tube formation assay. Matrigel (BD Matrigel Basement Membrane Matrix Growth Factor Reduced, Phenol Red Free) was thawed on ice overnight, dispersed into 48-well plates (100 μl per well) and allowed to polymerize for 30 minutes at 37° C. Serum starved HLECs were seeded on the Matrigel at a density of 1×10^4 cells per well. Images of four representative fields were taken 10 hrs later. ImageJ software was used to determine total cellular cord length. Migration assay. Cellular migration was evaluated using a modified Boyden chamber assay. Briefly, 2×10^4 serum-starved HLECs in 250 μl serum free medium were seeded in the upper chamber of the trans-well. 750 μl of serum free ECM containing various drugs was placed in the lower chamber. Ten hours later, migrated cells were stained with a modified Giemsa solution (Sigma-Aldrich) for quantification. Wound healing assay. 6×10^5 HLECs were seeded on an Easy Slide (Millipore) the day before the experiment and allowed to form a fully confluent monolayer, and then cells were serum starved for 12 hrs. A 200 μl pipet tip was used to scratch a straight line across the middle of the cell monolayer. Cell debris was removed through PBS washing. Images were taken immediately after the scratch and the same windows were imaged again 12 hrs later. The rate of cell migration was calculated as the average percent wound closure from at least 5 independent experiments using ImageJ software. Fibrin gel sprouting assay. HLECs were first coated overnight onto the Cytodex-3 beads with an approximate concentration of 400 cells per bead. On the following day, the microbeads were transferred to 2.0 mg/ml fibrinogen solution containing 0.15 units/ml of aprotinin. Later, 0.625 units/ml thrombin was added to the mixture to gelatinize the fibrin gel. Endothelial sprouts (vessel outgrowth) were observed within 3 days of culture using phase micrographic images and quantified as number of vessels per bead.

[3] = system: Notch transcriptional activity; assay: CSL luciferase reporter assay in HLECs; assay type: cell-based, human
Description: pG13-6-CSL luciferase assay. CSL reporter activity was determined as described previously. HLECs (5.0×105) were […] and transfected with both 1 μg CSL luciferase reporter ([…]) and 10 ng Renilla luciferase pRL-SV40 (Promega) using Nucleofactor (Lonza). Luciferase and Renilla activity were then determined with Dual-Luciferase® Reporter Assay System (Promega) and Berthold dual-injection illuminometer.

HLECs [4] = assay: tube formation assay on Matrigel; assay type: cell-based, human; details: 400 nM LTB4; 10 μM U75302+LTB4
Description: Tube formation assay. Matrigel (BD Matrigel Basement Membrane Matrix Growth Factor Reduced, Phenol Red Free) was thawed on ice overnight, dispersed into 48-well plates (100 μl per well) and allowed to polymerize for 30 minutes at 37° C. Serum starved HLECs were seeded on the Matrigel at a density of 1×10^4 cells per well. Images of four representative fields were taken 10 hrs later. […]

VEGFR3, Vegfc, Vegfd = assay: lymphangiogenic factor levels in HLECs (qRT-PCR, Western blot); assay type: cell-based, human; details: 400 nM LTB4, 100 ng/ml S1P, 25 μM DAPT
Description: as §2
Quantitative RT-PCR. Quantitative PCR (qRT-PCR) was performed using FastStart SYBR Green (Roche) on a Lightcycler 480. mRNA expression relative to GAPDH mRNA levels were calculated using the delta-delta threshold cycle (ΔΔCT) method. PCR microarrays were purchased from Qiagen: RT2 Profiler PCR Array 384-Well Format, Mouse Angiogenesis PAMM-024ZA) and VEGF Signaling (330231 PAMM-091ZA). […]

[5] = system: lymphatic vessel formation; assay: Matrigel plug assay (LYVE1, VEGFR3 staining); assay type: in vivo, mouse; details: Matrigel plugs in SCID mice
Description: Matrigel plug assay. SCID mice (NOD.Cg-Prkdcscid I/2rgtmlWjl/SzJ, The Jackson Laboratory) of 4-6 weeks of age were used for Matrigel plug injection. Two 250 μl Matrigel plugs were subcutaneously injected into the dorsal surface of the mice. Plugs were recovered with the adjacent subcutaneous tissue 14d later. Tissue was then embedded in paraffin and sectioned for staining.

HLECs [6] = assay: trans-well migration assay; assay type: cell-based, human; details: 400 nM LTB4
Description: Migration assay. Cellular migration was evaluated using a modified Boyden chamber assay. Briefly, 2×10^4 serum-starved HLECs in 250 μl serum free medium were seeded in the upper chamber of the trans-well. 750 μl of serum free ECM containing various drugs was placed in the lower chamber. Ten hours later, migrated cells were stained with a modified Giemsa solution (Sigma-Aldrich) for quantification.

HLECs [7] = assay: fibrin gel sprouting assay; assay type: cell-based, human; details: 400 nM LTB4
Description: Fibrin gel sprouting assay. HLECs were first coated overnight onto the Cytodex-3 beads with an approximate concentration of 400 cells per bead. On the following day, the microbeads were transferred to 2.0 mg/ml fibrinogen solution containing 0.15 units/ml of aprotinin. Later, 0.625 units/ml thrombin was added to the mixture to gelatinize the fibrin gel. Endothelial sprouts (vessel outgrowth) were observed within 3 days of culture using phase micrographic images and quantified as number of vessels per bead.

HLECs [8] = assay: LTB4-mediated HLEC apoptosis; assay type: cell-based, human
HLECs [9] = assay: NICD and filopodia histology of HLECs; assay type: cell-based, human
Description: as §2

CC(c1cc2ccccc2s1)N(O)C(N)=O (centres unmarked) [zileuton, 1-[1-(1-benzothiophen-2-yl)ethyl]-1-hydroxyurea]
serum LTB4 levels (LTB4): effectively reduced | amelioration of lymphedema (serial tail-volume measurements over 24d) [1]: demonstrated therapeutic amelioration of lymphedema

CC(C)Cc1ccc(C(C)C(=O)O)cc1 (centres unmarked) [ibuprofen]
tail swelling ([1]; therapies initiated on d3): not | tail histology (edema, epidermal/dermal junction) ([1]; treatment from d3): unresolved edema, irregular epidermal/dermal junction

CC(C(=O)O)c1cccc(C(=O)c2ccccc2)c1 (centres unmarked) [ketoprofen]
serum LTB4 levels (LTB4): effectively reduced

CCCCC/C=C\C[C@@H](O)/C=C/C=C/C=C\[C@@H](O)CCCC(=O)O [LTB4, leukotriene B4]
cleaved Notch (NICD) and DLL4 levels (Notch (NICD, DLL4)): decreased | p-Sphk1 in HLECs (p-Sphk1): diminished p-Sphk1 | concentration dependence of lymphangiogenesis block (HLECs [2]; 100 nm, 200 nm, 400 nm or 800 nm LTB4): blocked lymphangiogenesis in a concentration-dependent manner | Notch transcriptional activity (CSL reporter), in words ([3]; LTB4 100-800 nm for 24 h): inhibited Notch transcriptional activity in a dose dependent fashion | reduction of reporter activity ([3]; physiologic (400 nM) levels of LTB4): > 50% | tube formation (tube area) (HLECs [4]): decreased tube area | VEGFR3 expression and Vegfc, Vegfd transcription (VEGFR3, Vegfc, Vegfd): reduced | VEGFR3 expression of HLECs in vivo [5]: inhibited the VEGFR3 expression | lymphatic vessel formation in vivo ([5]; recovered 14d later): attenuated lymphatic vessel formation | HLEC migration (HLECs [6]): inhibited HLEC migration | sprout formation in 3D-fibrin-gel assay (HLECs [7]): preventing them from forming sprouts | LEC apoptosis (HLECs [8]): induced LEC apoptosis in a concentration-dependent manner | filopodia, nuclear-localized NICD and EphrinB2, cell shape (HLECs [9]): increased filopodia and less nuclear-localized NICD and EphrinB2

CCCCCCCCCCCCC/C=C/[C@@H](O)[C@@H](N)COP(=O)(O)O [S1P, sphingosine-1-phosphate]
cleaved Notch (NICD) and DLL4 levels (Notch (NICD, DLL4)): increased levels | HLEC lymphangiogenesis in the presence of S1P, shS1pr1, shDll4 or DAPT (HLECs [2]): restored the abnormal HLEC migration, differentiation, sprouting, and vessel formation caused by LTB4 | increase of reporter activity from base line ([3]; S1P): 3 fold | VEGFR3 expression and Vegfc, Vegfd transcription (VEGFR3, Vegfc, Vegfd): increased the expression of these factors | filopodia, nuclear-localized NICD and EphrinB2, cell shape (HLECs [9]): unified stalk-cell shape and enhanced nuclear localization

CCCCC/C=C\C[C@@H](O)/C=C/c1cccc(C[C@@H](O)CCCCO)n1 [U75302]
tube formation (tube area) (HLECs [4]): normalized tube formation

CCCc1c(OCCCOc2cc(O)c(-c3ccc(F)cc3)cc2CC)cccc1Oc1ccccc1C(=O)O [Ly293111, 2-[2-propyl-3-[3-[2-ethyl-4-(4-fluorophenyl)-5-hydroxyphenoxy]-propoxy]phenoxy]benzoic acid]
benefit of LTB4 antagonism administered prior to surgery ([1]; therapies administered prior to sham and lymphedema surgery (bestatin, Ly293111 from d0, shLtb4r1 on d(−7))): not beneficial | amelioration of lymphedema (serial tail-volume measurements over 24d) [1]: demonstrated therapeutic amelioration of lymphedema

C[C@H](NC(=O)Cc1cc(F)cc(F)c1)C(=O)N[C@H](C(=O)OC(C)(C)C)c1ccccc1 [DAPT]
effect of adding DAPT to bestatin-therapy in lymphedema ([1]; DAPT 30 mg/kg added to bestatin 4 mg/kg): abrogated the therapeutic benefit of bestatin | HLEC lymphangiogenesis in the presence of S1P, shS1pr1, shDll4 or DAPT (HLECs [2]): did not abrogate lymphangiogenesis entirely | VEGFR3 expression and Vegfc, Vegfd transcription (VEGFR3, Vegfc, Vegfd): inhibited
